Columns and labels:
Klebsiella pneumoniae = assay: antibiogram by diffusion on Mueller-Hinton agar with antibiotic wafers; format: cell-based; conditions: Table C2, sixteen wafers, square dish
Experimental: (§1) The inoculum was prepared by making a suspension of bacteria directly from colonies put into solution in tubes of sterile water so that the solution presented accurate opacity as determined with a spectrophotometer equivalent to the opacity of a 0.5 standard in the McFarland range. This bacterial suspension concentration is standardized since a more concentrated inoculum would lead to smaller diameters for the inhibition zone, and vice versa.
(§2) The inoculum corresponds to concentrations of about 10^8 CFU/mL for Escherichia coli, Klebsiella pneumoniae, Proteus mirabilis, Klebsiella oxytoca, Enterobacter cloacea, Enterobacter aerogenes, Entercoccus faecalis, Pseudomonas aeruginosa, Staphylococcus aureus, and Staphylococcus epidermidis. These are the ten species bacteria that are encountered the most frequently in human pathologies.
(§3) 1.2) The bacterial sample was deposited on a solid culture medium in a petri dish having a diameter of 90 mm or in a square dish having a side of 120 mm, the medium being constituted by a Mueller-Hinton agar specific for (EUCAST) antibiograms. Ideally, it should be used in the 15 minutes (min) following preparation of the suspension.
(§4) Seeding was done by the method of diffusion on an agar medium by flooding in which excess bacterial suspension was added to the Mueller-Hinton agar. After homogenizing, excess liquid was discarded in order to avoid over-inoculating the dishes. It is necessary to wait beforehand for the surface of the agar to be dry in order to eliminate any trace of moisture encouraging bacterial invasion.
(§5) The disks of the antibiotic wafers were deposited within 15 min after inoculating the agar. The antibiotic impregnated disks were deposited using an automatic dispenser that placed the disks firmly on the surface of the inoculated and dried agar. The number of disks deposited per dish was limited because of inhibition zone overlap and in order to limit interference between antibiotics. It is important for the inhibition diameters to be measurable. The antibiograms were then incubated at 37° C. for 18 hours (h) to 24 h.
(§6) The antibiotic wafers were made of high quality absorbent paper with a diameter of 6 mm and they were impregnated with antibiotics at concentrations in the range 1 micrograms (μg) to 300 μg approximately, depending on the antibiotic.
(§7) In the examples below, reference disks were used as sold by the suppliers i2a (Montpellier, France), BD (Becton Dickinson, USA), Bio-Rad (Hercules, USA), Biomerieux (Marcy l′Etoile, France) containing the following antibiotics and carrying the following codes and the following doses: AMX (amoxicillin) 25 μg: AMC (amoxicillin-clavulanic acid) 20 μg-10 μg; GM for gentamicin, 15 μg; SXT (trimethoprim-sulfamethoxazole) 1.25/23.75 μg; TIC (ticarcillin) 75 μg; TCC (ticarcillin-clavulanic acid) […]; TZP (piperacillin-tazobactam) 75/10 μg; CAZ (ceftazidime) 30 μg; IMP or IPM (imipeneme) 10 μg; COL (colistin) 50 μg; FOX (cefoxitine) 30 μg; VAN (vancomycin) 30 μg; TEC (teicoplanin) 30 μg; CLI or DA (clindamycin) 2 μg; CRO (ceftriaxone) 30 μg; CIP (ciprofloxacin) 5 μg; OFX (ofloxacin) 5 μg; CTX (cefotaxime) 5 μg; AN or AK (amikacin) 30 μg; TM (tobramycin) 10 μg; FOX (cefoxitine) 30 μg; ATM (aztreonam) 30 μg; ERT (ertapenem) 10 μg; FF (fosfomycin) 200 μg; DO (doxycycline) 30 μg; K (kanamycin) 1000 μg; L (lincomycin) 15 μs; LNZ (linezolid) 10 μg; AN (nalidixic acid) 30 μg; NOR (norfloxacin) 10 μg; PT (pristinamycin) 15 μg; RA (rifampicin) 5 μg; and E (erythromycin) 15 μg.

Escherichia coli [1] = assay: as above; format: cell-based; conditions: Table C2, square dish
Experimental: as §1, §2, §3, §4, §5, §6, §7

Staphylococcus aureus = assay: as above; format: cell-based; conditions: Table C2, sixteen wafers, square dish
Experimental: as §1, §2, §3, §4, §5, §6, §7

Escherichia coli [2] = conditions: cited from earlier work; for Critical diameters (mm) R> / Critical diameters (mm) S≤: disk load 10 μg, inhibition zone diameter; for Critical diameters (mm) R> / Critical concentrations (mg/L) R>: resistant; for Critical diameters (mm) S≤ / Critical concentrations (mg/L) S≤: sensitive; for Critical concentrations (mg/L) R>: high critical concentration; for Critical concentrations (mg/L) S≤: low critical concentration
Pseudomonas aeruginosa = assay: antibiogram by diffusion on Mueller-Hinton agar with antibiotic wafers; format: cell-based; conditions: Table C1, six wafers, disk loads of Table B
Experimental: as §1, §2, §3, §4, §5, §6, §7

Entercoccus faecalis = assay: as above; format: cell-based; conditions: Table C1, six wafers, disk loads of Table B
Experimental: as §1, §2, §3, §4, §5, §6, §7

[3] = K. pneumoniae phenotype Cephalosporinase + R to aminosides + R to cotrimoxazole
[4] = E. coli phenotype Cephalosporinase + R to fluoroquinolones + R to cotrimoxazole + partial R to aminosides, sixteen wafers
[5] = E. coli phenotype Hl penicillinase + R to fluoroquinolones + R to cotrimoxazole + partial R to aminosides, sixteen wafers
[6] = E. coli phenotype Wild, sixteen wafers in a rectangular grid
[7] = S. aureus phenotype R to methicilline, R to aminosides, fluoroquinolones, to rifampicie, to macrolides and the like
[8] = P. aeruginosa Abnormal phenotype
[9] = P. aeruginosa phenotype Carbapenemase
[10] = P. aeruginosa phenotype Penicillinase
[11] = P. aeruginosa phenotype Selective imipenem permeability

Compound | resistant (I/R) or sensitive (S) (Klebsiella pneumoniae; [3]) | resistant (I/R) or sensitive (S) (Klebsiella pneumoniae; K. pneumoniae phenotype Wild) | resistant (I/R) or sensitive (S) (Escherichia coli [1]; [4]) | resistant (I/R) or sensitive (S) (Escherichia coli [1]; [5]) | resistant (I/R) or sensitive (S) (Escherichia coli [1]; [6]) | resistant (I/R) or sensitive (S) (Staphylococcus aureus; [7]) | resistant (I/R) or sensitive (S) (Staphylococcus aureus; S. aureus phenotype Wild) | other results
NC[C@H]1O[C@H](O[C@H]2[C@H](O)[C@@H](O[C@H]3O[C@H](CO)[C@@H](O)[C@H](N)[C@H]3O)[C@H](N)C[C@@H]2N)[C@H](N)C[C@@H]1O [TOB, tobramycin] | R | R | R | R | S | R | S | –
CO/N=C(\C(=O)N[C@@H]1C(=O)N2C(C(=O)O)=C(COC(C)=O)CS[C@H]12)c1csc(N)n1 [CTX, cefotaxime] | R | R | R | S | S | – | – | –
O=C(O)c1cn(C2CC2)c2cc(N3CCNCC3)c(F)cc2c1=O [CIP, ciprofloxacin] | R | S | R | R | S | R | S | –
C[C@@H]1O[C@@H]1P(=O)(O)O [FF, fosfomycin] | – | – | – | – | – | R | S | –
C[C@@H](O)[C@H]1C(=O)N2C(C(=O)O)=C(S[C@@H]3CN[C@H](CNS(N)(=O)=O)C3)[C@H](C)[C@H]12 [Doripenem] | – | – | – | – | – | – | – | Critical diameters (mm) R> (Escherichia coli [2]): 21 mm; Critical diameters (mm) S≤ (Escherichia coli [2]): 24 mm; Critical concentrations (mg/L) R> (Escherichia coli [2]): 2 mg/L; Critical concentrations (mg/L) S≤ (Escherichia coli [2]): 1 mg/L
CC1(C)S[C@@H]2[C@H](NC(=O)[C@H](C(=O)O)c3ccsc3)C(=O)N2[C@H]1C(=O)O [TIC, ticarcillin] | R | R | R | R | S | – | – | resistance (I, R) or sensitivity (S) (Pseudomonas aeruginosa; [8]): R; resistance (I, R) or sensitivity (S) (Pseudomonas aeruginosa; P. aeruginosa phenotype BSBL): I/R; resistance (I, R) or sensitivity (S) (Pseudomonas aeruginosa; [9]): R; resistance (I, R) or sensitivity (S) (Pseudomonas aeruginosa; [10]): R; resistance (I, R) or sensitivity (S) (Pseudomonas aeruginosa; [11]): S; resistance (I, R) or sensitivity (S) (Pseudomonas aeruginosa; P. aeruginosa phenotype Wild): S
CC[C@H]1OC(=O)[C@H](C)[C@@H](O[C@H]2C[C@@](C)(OC)[C@@H](O)[C@H](C)O2)[C@H](C)[C@@H](O[C@@H]2O[C@H](C)C[C@H](N(C)C)[C@H]2O)[C@](C)(O)C[C@@H](C)C(=O)[C@H](C)[C@@H](O)[C@]1(C)O [E, erythromycin] | – | – | – | – | – | R | S | –
CO[C@H]1/C=C/O[C@@]2(C)Oc3c(C)c(O)c4c(O)c(c(/C=N/N5CCN(C)CC5)c(O)c4c3C2=O)NC(=O)/C(C)=C\C=C\[C@H](C)[C@H](O)[C@@H](C)[C@@H](O)[C@@H](C)[C@H](OC(C)=O)[C@@H]1C [RA, rifampicin] | – | – | – | – | – | R | S | –
CC(C)(O/N=C(\C(=O)N[C@@H]1C(=O)N2C(C(=O)[O-])=C(C[n+]3ccccc3)CS[C@H]12)c1csc(N)n1)C(=O)O [CAZ, ceftazidime] | – | – | – | – | – | – | – | resistance (I, R) or sensitivity (S) (Pseudomonas aeruginosa; [8]): S; resistance (I, R) or sensitivity (S) (Pseudomonas aeruginosa; P. aeruginosa phenotype BSBL): R; resistance (I, R) or sensitivity (S) (Pseudomonas aeruginosa; [9]): R; resistance (I, R) or sensitivity (S) (Pseudomonas aeruginosa; [10]): S; resistance (I, R) or sensitivity (S) (Pseudomonas aeruginosa; [11]): S; resistance (I, R) or sensitivity (S) (Pseudomonas aeruginosa; P. aeruginosa phenotype Wild): S
C[C@H]1[C@H](NC(=O)/C(=N\OC(C)(C)C(=O)O)c2csc(N)n2)C(=O)N1S(=O)(=O)O [ATM, aztreonam] | R | R | R | S | S | – | – | –
C[C@@H](O)[C@H]1C(=O)N2C(C(=O)O)=C(S[C@@H]3CN[C@H](C(=O)N(C)C)C3)[C@H](C)[C@H]12 [Meopenem] | – | – | – | – | – | – | – | Critical diameters (mm) R> (Escherichia coli [2]): 16 mm; Critical diameters (mm) S≤ (Escherichia coli [2]): 22 mm; Critical concentrations (mg/L) R> (Escherichia coli [2]): 8 mg/L; Critical concentrations (mg/L) S≤ (Escherichia coli [2]): 2 mg/L
CC1COc2c(N3CCN(C)CC3)c(F)cc3c(=O)c(C(=O)O)cn1c23 (centres unmarked) [OFX, ofloxacin] | R | S | R | R | S | – | – | –
O=C1CN(/N=C/c2ccc([N+](=O)[O-])o2)C(=O)N1 [FUR, nitrofurantoin] | – | – | – | – | – | R | S | resistance (I, R) or sensitivity (S) (Entercoccus faecalis; E. faecalis phenotype Atypical): S; resistance (I, R) or sensitivity (S) (Entercoccus faecalis; E. faecalis phenotype Wild): S
C[C@H]1c2cccc(O)c2C(=O)C2=C(O)[C@]3(O)C(=O)C(C(N)=O)=C(O)[C@@H](N(C)C)[C@@H]3[C@@H](O)[C@@H]21 [DO, doxycycline] | – | – | – | – | – | R | S | –
NCC[C@H](O)C(=O)N[C@@H]1C[C@H](N)[C@@H](O[C@H]2O[C@H](CN)[C@@H](O)[C@H](O)[C@H]2O)[C@H](O)[C@H]1O[C@H]1O[C@H](CO)[C@@H](O)[C@H](N)[C@H]1O [AK, amikacin] | S | R | S | S | S | – | – | –
C[C@@H](O)[C@H]1C(=O)N2C(C(=O)O)=C(S[C@@H]3CN[C@H](C(=O)Nc4cccc(C(=O)O)c4)C3)[C@H](C)[C@H]12 [Ertapenem] | – | – | – | – | – | – | – | Critical diameters (mm) R> (Escherichia coli [2]): 22 mm; Critical diameters (mm) S≤ (Escherichia coli [2]): 25 mm; Critical concentrations (mg/L) R> (Escherichia coli [2]): 1 mg/L; Critical concentrations (mg/L) S≤ (Escherichia coli [2]): 0.5 mg/L
Cc1onc(-c2ccccc2)c1C(=O)N[C@@H]1C(=O)N2[C@@H]1SC(C)(C)[C@@H]2C(=O)O [OXA, oxacillin] | – | – | – | – | – | R | S | –
CC(=O)NC[C@H]1CN(c2ccc(N3CCOCC3)c(F)c2)C(=O)O1 [LNZ, linezolid] | – | – | – | – | – | S | S | –
CCC[C@@H]1C[C@@H](C(=O)N[C@@H]([C@H]2O[C@H](SC)[C@H](O)[C@@H](O)[C@H]2O)[C@@H](C)O)N(C)C1 [LIN, lincomycin] | – | – | – | – | – | – | – | resistance (I, R) or sensitivity (S) (Entercoccus faecalis; E. faecalis phenotype Atypical): S; resistance (I, R) or sensitivity (S) (Entercoccus faecalis; E. faecalis phenotype Wild): S
pristinamycin [PT] | – | – | – | – | – | R | S | –
